Laboratory results reported in publication PMC9329436, “Optimization of the 4-anilinoquin(az)oline scaffold as epidermal growth factor receptor (EGFR) inhibitors for chordoma utilizing a toxicology profiling assay platform” (Scientific Reports, 2022).
Where two headings read alike, the source gives them in different places.

What was measured:
Assay type in all cases: biochemical
[1] = biological target: 320 wild-type protein kinases (Homo sapiens, UniProt Q13627); settings: DYRK1A, singlicate
Text: (§1) Table S4. Profiling of two compounds at two concentrations against 320 wild-type protein kinases; singlicate measurement; Residual activities (% of control).

[2] = biological target: 320 wild-type protein kinases (Homo sapiens, UniProt P31749); settings: singlicate
320 wild-type protein kinases (Homo sapiens, UniProt P31749), sequence (P31749 whole entry): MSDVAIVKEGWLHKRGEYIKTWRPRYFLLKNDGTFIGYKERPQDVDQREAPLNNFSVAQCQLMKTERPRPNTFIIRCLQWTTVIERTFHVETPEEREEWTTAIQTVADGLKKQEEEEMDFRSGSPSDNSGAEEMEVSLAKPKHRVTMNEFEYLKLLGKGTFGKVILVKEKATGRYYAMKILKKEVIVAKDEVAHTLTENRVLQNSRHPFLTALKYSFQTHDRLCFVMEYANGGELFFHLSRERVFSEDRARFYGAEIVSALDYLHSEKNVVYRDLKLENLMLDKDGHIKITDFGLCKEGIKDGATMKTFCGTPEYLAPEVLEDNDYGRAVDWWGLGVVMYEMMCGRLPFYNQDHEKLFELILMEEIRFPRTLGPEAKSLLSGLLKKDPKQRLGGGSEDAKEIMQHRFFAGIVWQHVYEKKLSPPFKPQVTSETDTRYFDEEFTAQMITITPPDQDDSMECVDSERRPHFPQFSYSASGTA
Text: as §1

[3] = biological target: T1, 320 wild-type protein kinases (Homo sapiens, UniProt Q96L34); settings: singlicate
T1 sequence (Q96L34 1-752): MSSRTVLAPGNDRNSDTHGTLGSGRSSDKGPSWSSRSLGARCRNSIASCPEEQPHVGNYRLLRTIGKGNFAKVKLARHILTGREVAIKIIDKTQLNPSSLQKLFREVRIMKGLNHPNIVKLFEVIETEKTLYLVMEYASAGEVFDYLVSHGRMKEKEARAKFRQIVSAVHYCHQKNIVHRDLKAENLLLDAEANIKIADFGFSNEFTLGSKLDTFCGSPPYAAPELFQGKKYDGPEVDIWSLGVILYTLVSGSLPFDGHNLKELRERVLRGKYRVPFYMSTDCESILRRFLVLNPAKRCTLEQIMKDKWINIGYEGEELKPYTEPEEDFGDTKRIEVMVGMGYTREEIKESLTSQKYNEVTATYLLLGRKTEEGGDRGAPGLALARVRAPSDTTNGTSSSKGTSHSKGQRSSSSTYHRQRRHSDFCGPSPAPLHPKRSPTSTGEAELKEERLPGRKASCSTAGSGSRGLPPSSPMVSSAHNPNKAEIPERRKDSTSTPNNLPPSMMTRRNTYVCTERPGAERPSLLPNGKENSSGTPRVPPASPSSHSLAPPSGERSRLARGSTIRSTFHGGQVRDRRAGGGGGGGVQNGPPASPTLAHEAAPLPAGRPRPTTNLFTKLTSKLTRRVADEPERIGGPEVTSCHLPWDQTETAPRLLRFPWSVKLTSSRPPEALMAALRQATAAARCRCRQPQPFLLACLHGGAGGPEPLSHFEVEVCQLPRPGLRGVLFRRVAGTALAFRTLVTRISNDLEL
Text: as §1

[4] = biological target: 320 wild-type protein kinases (Homo sapiens, UniProt P53779); settings: singlicate
320 wild-type protein kinases (Homo sapiens, UniProt P53779), sequence (P53779 whole entry): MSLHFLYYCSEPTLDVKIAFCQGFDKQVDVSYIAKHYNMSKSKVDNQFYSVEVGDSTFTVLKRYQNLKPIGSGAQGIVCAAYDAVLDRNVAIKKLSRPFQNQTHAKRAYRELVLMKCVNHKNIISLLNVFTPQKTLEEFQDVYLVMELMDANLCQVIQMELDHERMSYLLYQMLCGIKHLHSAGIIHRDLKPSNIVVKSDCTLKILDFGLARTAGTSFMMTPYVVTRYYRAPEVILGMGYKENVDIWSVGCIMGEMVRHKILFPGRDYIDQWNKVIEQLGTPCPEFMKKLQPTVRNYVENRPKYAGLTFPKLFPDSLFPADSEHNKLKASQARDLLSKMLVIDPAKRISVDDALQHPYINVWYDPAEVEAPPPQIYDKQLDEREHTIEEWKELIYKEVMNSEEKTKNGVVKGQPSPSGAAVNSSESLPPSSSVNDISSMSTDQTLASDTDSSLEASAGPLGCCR
Text: as §1

[5] = biological target: 320 wild-type protein kinases (Homo sapiens, UniProt P51451); settings: BLK, singlicate
320 wild-type protein kinases (Homo sapiens, UniProt P51451), sequence (P51451 whole entry): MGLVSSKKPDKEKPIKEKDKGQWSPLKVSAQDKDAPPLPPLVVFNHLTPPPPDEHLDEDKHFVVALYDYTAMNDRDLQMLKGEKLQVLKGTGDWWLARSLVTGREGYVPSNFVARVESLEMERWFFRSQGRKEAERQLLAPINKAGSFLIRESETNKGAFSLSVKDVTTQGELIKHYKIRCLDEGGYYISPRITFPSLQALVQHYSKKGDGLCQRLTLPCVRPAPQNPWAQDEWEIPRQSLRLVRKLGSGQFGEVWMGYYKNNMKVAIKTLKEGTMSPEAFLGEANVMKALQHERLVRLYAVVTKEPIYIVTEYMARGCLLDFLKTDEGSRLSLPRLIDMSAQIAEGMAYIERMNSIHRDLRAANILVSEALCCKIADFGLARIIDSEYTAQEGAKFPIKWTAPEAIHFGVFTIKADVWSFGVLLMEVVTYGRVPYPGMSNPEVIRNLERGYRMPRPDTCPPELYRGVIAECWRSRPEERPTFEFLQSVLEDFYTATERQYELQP
Text: as §1

[6] = biological target: 320 wild-type protein kinases (Homo sapiens, UniProt O75716); settings: kinase TSF1, singlicate
320 wild-type protein kinases (Homo sapiens, UniProt O75716), sequence (O75716 whole entry): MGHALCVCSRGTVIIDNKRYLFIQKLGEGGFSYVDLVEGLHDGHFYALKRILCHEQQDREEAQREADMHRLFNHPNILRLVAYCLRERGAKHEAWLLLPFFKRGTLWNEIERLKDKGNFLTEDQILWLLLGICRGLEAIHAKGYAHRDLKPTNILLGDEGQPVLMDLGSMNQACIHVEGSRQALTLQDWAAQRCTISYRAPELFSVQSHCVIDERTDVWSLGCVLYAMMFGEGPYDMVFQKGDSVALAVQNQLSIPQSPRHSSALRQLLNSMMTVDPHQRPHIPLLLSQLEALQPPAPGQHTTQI
Text: as §1

[7] = biological target: T2, 320 wild-type protein kinases (Homo sapiens, UniProt Q32MK0); settings: singlicate
T2 sequence (Q32MK0 1-819): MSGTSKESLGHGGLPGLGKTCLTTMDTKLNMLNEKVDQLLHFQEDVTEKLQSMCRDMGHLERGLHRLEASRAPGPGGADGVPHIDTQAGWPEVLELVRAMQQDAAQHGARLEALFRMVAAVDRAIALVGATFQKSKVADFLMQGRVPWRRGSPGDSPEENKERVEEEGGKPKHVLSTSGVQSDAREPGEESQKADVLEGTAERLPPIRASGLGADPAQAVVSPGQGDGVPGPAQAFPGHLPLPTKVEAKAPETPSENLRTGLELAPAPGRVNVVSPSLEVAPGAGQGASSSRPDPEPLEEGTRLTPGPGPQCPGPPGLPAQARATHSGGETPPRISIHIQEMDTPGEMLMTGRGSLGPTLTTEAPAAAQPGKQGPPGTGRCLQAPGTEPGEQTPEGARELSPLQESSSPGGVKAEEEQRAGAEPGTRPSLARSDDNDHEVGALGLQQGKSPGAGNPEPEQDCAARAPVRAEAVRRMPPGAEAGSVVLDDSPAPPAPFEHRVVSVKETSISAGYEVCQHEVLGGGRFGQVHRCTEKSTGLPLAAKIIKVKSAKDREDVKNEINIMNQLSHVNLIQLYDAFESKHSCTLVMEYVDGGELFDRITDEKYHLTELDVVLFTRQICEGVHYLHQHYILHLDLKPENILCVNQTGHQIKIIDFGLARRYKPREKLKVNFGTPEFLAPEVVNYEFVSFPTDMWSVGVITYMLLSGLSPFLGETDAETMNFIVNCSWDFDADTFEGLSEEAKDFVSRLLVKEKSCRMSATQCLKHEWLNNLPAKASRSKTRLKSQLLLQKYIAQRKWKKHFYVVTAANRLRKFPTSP
Text: as §1

[8] = biological target: T3, 320 wild-type protein kinases (Homo sapiens, UniProt Q16566); settings: singlicate
T3 sequence (Q16566 1-473): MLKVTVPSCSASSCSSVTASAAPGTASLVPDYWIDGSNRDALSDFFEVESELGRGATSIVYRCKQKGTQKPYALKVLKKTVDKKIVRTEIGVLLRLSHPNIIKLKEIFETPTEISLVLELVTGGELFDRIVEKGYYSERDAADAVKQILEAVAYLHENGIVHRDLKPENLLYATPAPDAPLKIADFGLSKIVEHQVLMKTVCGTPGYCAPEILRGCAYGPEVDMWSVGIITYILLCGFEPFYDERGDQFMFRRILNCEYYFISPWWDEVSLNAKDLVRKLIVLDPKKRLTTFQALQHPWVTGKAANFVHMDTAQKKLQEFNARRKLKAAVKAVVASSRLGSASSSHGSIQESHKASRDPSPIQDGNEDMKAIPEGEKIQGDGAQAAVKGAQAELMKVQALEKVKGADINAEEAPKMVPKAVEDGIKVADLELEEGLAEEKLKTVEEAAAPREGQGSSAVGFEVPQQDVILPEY
Text: as §1

[9] = biological target: 320 wild-type protein kinases (Homo sapiens, UniProt Q9UK32); settings: kinase RPS6KA6, singlicate
320 wild-type protein kinases (Homo sapiens, UniProt Q9UK32), sequence (Q9UK32 whole entry): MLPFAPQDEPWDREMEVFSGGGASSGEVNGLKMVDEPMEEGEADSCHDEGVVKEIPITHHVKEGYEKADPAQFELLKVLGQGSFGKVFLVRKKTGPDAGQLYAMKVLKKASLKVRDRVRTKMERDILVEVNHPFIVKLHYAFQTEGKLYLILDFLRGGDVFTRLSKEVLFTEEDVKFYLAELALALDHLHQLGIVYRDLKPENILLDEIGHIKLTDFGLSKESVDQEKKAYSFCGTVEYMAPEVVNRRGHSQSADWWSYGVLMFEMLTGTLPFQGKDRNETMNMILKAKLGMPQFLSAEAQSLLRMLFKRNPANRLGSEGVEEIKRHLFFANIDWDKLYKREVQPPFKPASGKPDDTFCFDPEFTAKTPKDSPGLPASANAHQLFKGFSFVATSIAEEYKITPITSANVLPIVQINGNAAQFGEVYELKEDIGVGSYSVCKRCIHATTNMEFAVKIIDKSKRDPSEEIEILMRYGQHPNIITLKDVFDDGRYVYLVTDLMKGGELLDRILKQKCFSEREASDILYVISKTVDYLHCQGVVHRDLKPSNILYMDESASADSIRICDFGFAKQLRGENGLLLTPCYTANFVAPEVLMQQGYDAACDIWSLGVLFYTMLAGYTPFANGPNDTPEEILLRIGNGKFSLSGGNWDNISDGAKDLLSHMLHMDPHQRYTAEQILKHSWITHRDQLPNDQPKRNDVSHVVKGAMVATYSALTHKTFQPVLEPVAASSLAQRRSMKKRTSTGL
Text: as §1

[10] = biological target: 320 wild-type protein kinases (Homo sapiens, UniProt Q9Y2K2); settings: kinase SIK3, singlicate
320 wild-type protein kinases (Homo sapiens, UniProt Q9Y2K2), sequence (Q9Y2K2 whole entry): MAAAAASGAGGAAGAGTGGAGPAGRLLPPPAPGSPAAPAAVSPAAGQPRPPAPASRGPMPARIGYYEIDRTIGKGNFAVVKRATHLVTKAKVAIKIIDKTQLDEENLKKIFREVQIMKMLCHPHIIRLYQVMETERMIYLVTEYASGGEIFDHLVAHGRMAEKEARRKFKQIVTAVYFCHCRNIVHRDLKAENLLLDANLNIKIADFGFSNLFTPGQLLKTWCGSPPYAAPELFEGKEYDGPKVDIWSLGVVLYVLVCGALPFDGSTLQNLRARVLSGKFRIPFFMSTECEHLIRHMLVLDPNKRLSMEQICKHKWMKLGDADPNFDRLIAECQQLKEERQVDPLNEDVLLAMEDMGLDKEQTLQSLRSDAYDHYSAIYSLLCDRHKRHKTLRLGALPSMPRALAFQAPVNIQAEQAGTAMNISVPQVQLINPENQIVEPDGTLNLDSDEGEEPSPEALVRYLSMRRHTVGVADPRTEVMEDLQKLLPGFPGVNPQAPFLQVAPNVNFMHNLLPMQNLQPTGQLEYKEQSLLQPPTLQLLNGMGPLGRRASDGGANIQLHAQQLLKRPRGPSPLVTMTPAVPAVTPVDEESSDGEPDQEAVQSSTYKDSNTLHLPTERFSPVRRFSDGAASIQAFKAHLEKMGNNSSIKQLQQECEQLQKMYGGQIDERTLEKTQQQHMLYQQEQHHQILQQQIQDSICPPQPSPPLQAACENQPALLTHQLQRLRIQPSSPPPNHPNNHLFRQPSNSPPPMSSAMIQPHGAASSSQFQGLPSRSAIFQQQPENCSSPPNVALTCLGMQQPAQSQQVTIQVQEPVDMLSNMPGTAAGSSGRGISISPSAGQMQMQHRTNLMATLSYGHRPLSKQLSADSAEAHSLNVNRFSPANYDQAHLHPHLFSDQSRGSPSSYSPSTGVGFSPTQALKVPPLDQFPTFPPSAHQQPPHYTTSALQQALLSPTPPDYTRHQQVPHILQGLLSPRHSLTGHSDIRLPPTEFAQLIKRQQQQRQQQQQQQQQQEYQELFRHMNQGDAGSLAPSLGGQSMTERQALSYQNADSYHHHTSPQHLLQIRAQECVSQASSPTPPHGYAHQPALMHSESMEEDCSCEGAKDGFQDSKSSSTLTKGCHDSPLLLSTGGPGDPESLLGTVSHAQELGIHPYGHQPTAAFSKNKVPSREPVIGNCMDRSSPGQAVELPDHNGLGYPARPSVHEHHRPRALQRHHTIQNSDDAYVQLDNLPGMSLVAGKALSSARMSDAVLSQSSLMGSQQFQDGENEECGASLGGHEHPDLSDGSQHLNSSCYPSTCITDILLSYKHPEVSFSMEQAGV
Text: as §1

Row | Structure (SMILES) | Residual activity ([1]; 1.0E-06 M) | Residual activity ([1]; 1.0E-07 M) | Residual activity ([2]; AKT1 aa106-480, 1.0E-06 M) | Residual activity ([2]; AKT1 aa106-480, 1.0E-07 M) | Residual activity ([3]; MARK4, 1.0E-06 M) | Residual activity ([3]; MARK4, 1.0E-07 M) | Residual activity ([4]; JNK3, 1.0E-06 M) | Residual activity ([4]; JNK3, 1.0E-07 M) | Residual activity ([5]; 1.0E-06 M) | Residual activity ([5]; 1.0E-07 M) | Residual activity, TSF1 ([6]; assay conc. 1.0E-06 M) | Residual activity, TSF1 ([6]; assay conc. 1.0E-07 M) | Residual activity ([7]; MYLK3, 1.0E-06 M) | Residual activity ([7]; MYLK3, 1.0E-07 M) | Residual activity ([8]; CAMK4, 1.0E-06 M) | Residual activity ([8]; CAMK4, 1.0E-07 M) | Residual activity, RPS6KA6 ([9]; assay conc. 1.0E-06 M) | Residual activity, RPS6KA6 ([9]; assay conc. 1.0E-07 M) | Residual activity, SIK3 ([10]; assay conc. 1.0E-06 M) | Residual activity, SIK3 ([10]; assay conc. 1.0E-07 M)
1 | C#Cc1cc(Nc2ncnc3cc(I)ccc23)ccc1Cl [Compound 41] | 75 % of control | 84 % of control | 94 % of control | 96 % of control | 114 % of control | 111 % of control | 99 % of control | 90 % of control | 93 % of control | 99 % of control | 94 % of control | 93 % of control | 93 % of control | 104 % of control | 91 % of control | 84 % of control | 94 % of control | 103 % of control | 72 % of control | 77 % of control
2 | C#Cc1cc(Nc2ncnc3cc(OC)c(OC)cc23)ccc1Cl [Compound 45] | 91 % of control | 85 % of control | 101 % of control | 100 % of control | 115 % of control | 110 % of control | 89 % of control | 92 % of control | 62 % of control | 99 % of control | 104 % of control | 95 % of control | 86 % of control | 100 % of control | 89 % of control | 84 % of control | 70 % of control | 93 % of control | 58 % of control | 83 % of control
